In paper PMC2248166, “Quantitative peptide binding motifs for 19 human and mouse MHC class I molecules derived using positional scanning combinatorial peptide libraries” (Immunome Research, 2008):

Experiments:
HLA A*3001 = HLA A*3001 (Homo sapiens, UniProt P04439, D140H/D185E/E176W/F33S/G80R/H175R/K168Q/R138E/R41S); experiment: biochemical; assay type: binding
HLA A*3201 = HLA A*3201 (Homo sapiens, UniProt P04439, A270S/D101S/D185E/E176V/E277Q/F133L/G103R/G107R/G231S/H175R/I121M/I218V/I322F/K168Q/L105A/L300P/L318F/M331R/P208A/P217A/Q94H/R106L/R138Q/S129P/T104I/T323A/T345S/V100E/V321M/V358M); experiment: biochemical; assay type: binding
HLA A*6802 = HLA A*6802 (Homo sapiens, UniProt P04439, A269V/D140Y/D185E/E176V/E277Q/E87N/F33Y/G231S/I121R/I166T/I218V/L180W/L300P/L318F/N151K/P208A/P217A/Q86R/R138H/R169H/S129P/T345S/V36M); assay type: binding
HLA B*0702 = HLA B*0702 (Homo sapiens, UniProt P01889); assay type: binding; settings: positional scanning combinatorial 9-mer library; normalized to 1.0 for the best residue at each position
HLA B*0801 = HLA B*0801 (Homo sapiens, UniProt P01889, A93T/A95T/D138N/E176V/E187T/K202T/Q94N/R180D/S35A/V36M/Y33D/Y91F); experiment: biochemical; assay type: binding
HLA B*1501 = HLA B*1501 (Homo sapiens, UniProt P01889, A329T/A93T/A95T/C349S/D201E/D98Y/E187L/E204Q/E69M/E70A/K202T/N87E/Q94N/R155S/R180W/S121R/S35A/S48A/V306I/V36M/Y140S/Y91S); experiment: biochemical; assay type: binding
HLA B*1503 = HLA B*1503 (Homo sapiens, UniProt P01889, A329T/A93T/A95T/C349S/D201E/D98Y/E187L/E204Q/K202T/N87E/Q94N/R155S/R180L/S121R/S35A/V306I/V36M/Y140S/Y91S); experiment: biochemical; assay type: binding
HLA B*2705 = HLA B*2705 (Homo sapiens, UniProt P01889, D138H/D201E/E176V/E204Q/G107R/H137Y/K202T/N104T/N87E/Q56L/Q94K/R106L/R155S/R180L/S101D/S121N/S48T/Y140D/Y33H/Y91C); assay type: binding; settings: positional scanning combinatorial 9-mer library; normalized to 1.0 for the best residue at each position
HLA B*3501 = HLA B*3501 (Homo sapiens, UniProt P01889, A329T/A93T/A95T/C349S/D201E/D98Y/E176V/E187L/E204Q/E69T/I218V/K202T/L119I/Q94N/R155S/R180L/S121R/S35A/S48A/T118I/V127L/V306I/V36M/Y140S/Y91F); assay type: binding
HLA B*5101 = HLA B*5101 (Homo sapiens, UniProt P01889, A329T/A93T/A95T/C349S/D138N/D201E/D98Y/E187L/E204Q/E69T/G107R/I218V/K202T/L105A/L119W/N104I/Q94N/R106L/R155S/R180L/S101N/S121T/S35A/S48A/V306I/V36M/Y195H/Y91F); assay type: binding
HLA B*5301 = HLA B*5301 (Homo sapiens, UniProt P01889, A329T/A93T/A95T/C349S/D201E/D98Y/E176V/E187L/E204Q/E69T/G107R/I218V/K202T/L105A/L119I/N104I/Q94N/R106L/R155S/R180L/S101N/S121R/S35A/S48A/T118I/V127L/V306I/V36M/Y140S/Y91F); assay type: binding
HLA B*5401 = HLA B*5401 (Homo sapiens, UniProt P01889, A329T/C349S/D138N/D201E/E176V/E187T/E204Q/E69G/I76V/K202T/L119W/R155S/R180L/S121T/S35A/S48A/V127L/V306I/V36M/Y140L); assay type: binding
HLA B*5801 = HLA B*5801 (Homo sapiens, UniProt P01889, A329T/C349S/D201E/D98Y/E176V/E187L/E204Q/E69T/G107R/I218V/I90N/K202T/L105A/L119I/N104I/N87E/Q89R/Q94S/R106L/R155S/R180L/R86G/S101N/S121R/S35A/S48A/T118I/V127L/V306I/V36M/Y140S/Y91M); assay type: binding
HLA B*5802 = HLA B*5802 (Homo sapiens, UniProt P01889, A329T/C349S/D201E/D98Y/E176V/E187L/E204Q/E69T/G107R/I218V/I90N/K202T/L105A/N104I/N87E/Q89R/Q94S/R106L/R155S/R180L/R86G/S101N/S121W/S35A/S48A/V127L/V306I/V36M/Y140S/Y91M); assay type: binding
H-2 D^b = H-2 D^b (Mus musculus, UniProt P01899); assay type: binding
H-2 D^d = H-2 D^d (Mus musculus, UniProt P01900); assay type: binding
H-2 K^k = H-2 K^k (Mus musculus, UniProt P04223); assay type: binding
HLA A*0201 = HLA A*0201 (Homo sapiens, UniProt P04439, D140Y/D185E/D98H/E176V/E277Q/G131W/G231S/I119V/I121R/I166T/I218V/L300P/L318F/N151K/N90K/P208A/P217A/Q86G/Q94H/R138H/R169H/T345S); settings: positional scanning combinatorial 9-mer library; normalized to 1.0 for the best residue at each position

Chain of H-2 K^k (P01887 21-119): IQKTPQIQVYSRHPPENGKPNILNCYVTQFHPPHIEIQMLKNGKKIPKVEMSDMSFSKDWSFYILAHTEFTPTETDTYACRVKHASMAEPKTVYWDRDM
Chain of H-2 K^k (P04223 22-369): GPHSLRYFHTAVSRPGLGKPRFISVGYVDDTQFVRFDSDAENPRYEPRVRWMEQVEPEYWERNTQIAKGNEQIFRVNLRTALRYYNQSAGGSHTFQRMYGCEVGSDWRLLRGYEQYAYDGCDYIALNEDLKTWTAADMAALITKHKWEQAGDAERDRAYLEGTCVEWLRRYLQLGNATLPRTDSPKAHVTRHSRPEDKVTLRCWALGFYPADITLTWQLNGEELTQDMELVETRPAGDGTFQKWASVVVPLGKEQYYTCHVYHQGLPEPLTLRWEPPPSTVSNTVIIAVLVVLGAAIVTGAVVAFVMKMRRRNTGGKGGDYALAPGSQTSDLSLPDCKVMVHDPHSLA
Chain of H-2 D^b (P01887 21-119): as the sequence (P01887 21-119) above
Chain of H-2 D^b (P01899 25-362): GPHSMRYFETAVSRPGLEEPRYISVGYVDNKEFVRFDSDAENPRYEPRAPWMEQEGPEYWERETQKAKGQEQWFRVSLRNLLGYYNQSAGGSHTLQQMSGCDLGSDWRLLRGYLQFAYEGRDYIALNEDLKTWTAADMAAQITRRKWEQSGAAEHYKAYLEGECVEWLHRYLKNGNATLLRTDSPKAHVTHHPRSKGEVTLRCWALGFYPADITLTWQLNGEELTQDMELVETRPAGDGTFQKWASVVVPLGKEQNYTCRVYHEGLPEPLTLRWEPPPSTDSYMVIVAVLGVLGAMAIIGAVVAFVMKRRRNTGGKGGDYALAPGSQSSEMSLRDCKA
Chain of H-2 D^d (P01900 whole entry, looked up): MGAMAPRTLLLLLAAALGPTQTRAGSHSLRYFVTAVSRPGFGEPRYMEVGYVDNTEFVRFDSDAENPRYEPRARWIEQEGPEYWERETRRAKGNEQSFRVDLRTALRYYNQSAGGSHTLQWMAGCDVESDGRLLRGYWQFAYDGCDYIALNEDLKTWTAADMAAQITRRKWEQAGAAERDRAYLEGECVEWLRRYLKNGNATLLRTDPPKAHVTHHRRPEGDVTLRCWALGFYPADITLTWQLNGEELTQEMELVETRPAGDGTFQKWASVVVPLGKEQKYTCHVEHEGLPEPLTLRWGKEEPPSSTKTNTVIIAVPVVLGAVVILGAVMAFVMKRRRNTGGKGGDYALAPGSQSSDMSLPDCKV

Sequence	Normalized average relative binding affinity (ARB), HLA A*3001 (HLA A*3001)	Normalized average relative binding affinity (ARB), HLA A*3201 (HLA A*3201)	Normalized average relative binding affinity (ARB), HLA A*6802 (HLA A*6802)	Normalized average relative binding affinity (ARB), HLA B*0702 (HLA B*0702)	Normalized average relative binding affinity (ARB), HLA B*0801 (HLA B*0801)	Normalized average relative binding affinity (ARB), HLA B*1501 (HLA B*1501)	Normalized average relative binding affinity (ARB), HLA B*1503 (HLA B*1503)	Normalized average relative binding affinity (ARB), HLA B*2705 (HLA B*2705)	Normalized average relative binding affinity (ARB), HLA B*3501 (HLA B*3501)	Normalized average relative binding affinity (ARB), HLA B*5101 (HLA B*5101)	Normalized average relative binding affinity (ARB), HLA B*5301 (HLA B*5301)	Normalized average relative binding affinity (ARB), HLA B*5401 (HLA B*5401)	Normalized average relative binding affinity (ARB), HLA B*5801 (HLA B*5801)	Normalized average relative binding affinity (ARB), HLA B*5802 (HLA B*5802)	Normalized average relative binding affinity (ARB), H-2 Db (H-2 D^b)	Normalized average relative binding affinity (ARB), H-2 Dd (H-2 D^d)	Normalized average relative binding affinity (ARB), H-2 Kk (H-2 K^k)	Normalized average relative binding affinity (ARB), HLA A*0201 (HLA A*0201)
XXDXXXXXX [3064.0043]	0.0018	0.085	0.025	0.031	0.015	0.039	0.032	0.020	0.11	0.070	0.096	0.0033	0.11	0.047	0.022	0.012	0.059	0.46
XXEXXXXXX [3064.0044]	0.0031	0.14	0.046	0.052	0.034	0.040	0.044	0.071	0.073	0.070	0.031	0.0049	0.095	0.049	0.032	0.0030	0.27	0.037
XXFXXXXXX [3064.0045]	0.041	0.98	0.82	0.067	0.19	0.83	0.62	1.0	0.49	0.65	0.19	0.11	0.52	0.41	0.099	0.0072	0.39	0.63
XXGXXXXXX [3064.0046]	0.0022	0.20	0.061	0.052	0.086	0.14	0.063	0.17	0.068	0.078	0.046	0.025	0.12	0.17	0.13	0.0040	0.19	0.098
XXHXXXXXX [3064.0047]	0.089	0.24	0.14	0.39	0.35	0.68	0.19	0.26	0.094	0.60	0.059	0.013	0.19	0.42	0.20	0.0028	0.72	0.27
XXIXXXXXX [3064.0048]	0.020	0.60	0.38	0.12	0.15	1.0	0.17	0.22	0.16	0.39	0.26	0.083	0.77	1.0	0.24	0.0041	0.26	0.54
